Measurements published in US20080176255A1, “Mold detection composition and methods” (priority 2007, published 2008).
Counter-ions that a name gives are not always drawn.

Assay: Solubility in distilled water
Format: physicochemical
Description: In one embodiment, the compositions described herein may further comprise a solvent; a gelling agent; and a diluent.

- solubility (at 25° C.): 25 mg/mL
- solubility (at 95° C.): 300 mg/mL
Structure (SMILES): O=S(=O)(O)c1ccccc1C=Cc1ccc(-c2ccc(C=Cc3ccccc3S(=O)(=O)O)cc2)cc1 [BBD, 2,2′-([1,1′-Biphenyl]-4,4′-diyldi-2,1-ethenediyl)bis-benzenesulfonic acid disodium salt]
